What follows are molecules tested on extracellular HBeAg level (surrogate marker for cccDNA) in HepDES19 cells (assay: HepDES19 primary screen assay). Settings: Hepatitis B virus, 120 h, 5 days compound incubation, HBeAg ELISA.
Assay type: cell-based, HBV
Text: The assay was employed to primarily screen for novel cccDNA inhibitors. HepDES19 is an engineered cell line which contains a 1.1 unit length HBV genome, and pgRNA transcription from the transgene is controlled by Tetracycline (Tet). In the absence of Tet, pgRNA transcription will be induced, but HBV e antigen (HBeAg) could not be produced from this pgRNA due to the fact that the very short leader sequence before the HBeAg start codondisrupted the start codon. Only after cccDNA is formed, the missing leader sequence and start codon mutation would be restored from the 3′-terminal redundancy of pgRNA, and then HBeAg could be synthesized. Therefore, HBeAg could be used as a surrogate marker for cccDNA (Zhou, T. et al., Antiviral Res(2006), 72(2), 116-124; Guo, H. et al., J. Virol (2007), 81(22), 12472-12484).
HepDES19 cells were seeded at 2×10^6 cells per T150 flask and cultured with the culture medium (Dulbecco's Modified Eagle Medium: Nutrient Mixture F-12 (DMEM:F12, Gibco Cat. 11320-82), 10% Fetal Bovine Serum (FBS, Clontech Cat. 631101), 0.1 mM Non-Essential Amino Acids Solution (NEAA, Gibco Cat. 11140-050), 50 μg/mL Penicillin-Streptomycin (PS, Invitrogen Cat. 15140-163), 500 μg/mL Geneticin (G418, Invitrogen Cat. 10131-027) containing 3 μg/mL Tet (Sigma, Cat. 87128) for 5 days. Cells were then seeded at 4×10^6 cells per T150 in the same culture medium as described above in the absence of Tet for 8 days. Cells were then harvested and frozen at density of 2×10^6 cells per mL. For compound testing, the frozen cells were thawed and seeded into 96-well plates at a density of 6×10^4 cells per well. At 24 hrs after seeding, half log serial dilutions of compounds made with Dimethyl sulfoxide (DMSO, Sigma, Cat. D2650) were further diluted with the same culture medium as described above before they were added to the cells to reach desired final compound concentrations and 1% DMSO concentration. Plates were then incubated at 37° C. for another 5 days before measurement of HBeAg level and cell viability. Extracellular HBeAg level were measured with enzyme-linked immunosorbent assay (ELISA) kit (Shanghai Kehua Diagnostic Medical Products Co., Ltd). Cell viability was assessed using Cell Counting Kit-8 (Donjindo, Cat. CK04-20). IC50 values were derived from the dose-response curve using 4 parameter logistic curve fit method.
The compounds of the present invention were tested for their capacity to inhibit extracellular HBeAg level as described herein.
With `CC1(C(=O)O)CCN(c2ccc3c(=O)c4cccc(Cl)c4oc3c2)C1` (stereo not shown) [Example 16, 1-(5-chloro-9-oxo-xanthen-3-yl)-3-methyl-pyrrolidine-3-carboxylic Acid] the IC50 was 11.2 µM.
Work on `O=C(O)C1CCCN(c2ccc3c(=O)c4cccc(Cl)c4oc3c2)C1` (stereo not shown) [Example 14, 1-(5-chloro-9-oxo-xanthen-3-yl)piperidine-3-carboxylic acid] yielded an IC50 of 5.79 µM.
In the case of `O=C(C1CCN(c2ccc3c(=O)c4cccc(Cl)c4oc3c2)C1)N1CCOCC1` (stereo not shown) [Example 65, 5-chloro-3-[3-(morpholine-4-carbonyl)pyrrolidin-1-yl]xanthen-9-one], the IC50 is reported as 3.89 µM.
For `O=c1c2ccc(N3CCCCCC3)cc2oc2c(F)cccc12` [Example 13, 3-(azepan-1-yl)-5-fluoro-xanthen-9-one], the IC50 was 5.49 µM.
In the case of `O=C(O)[C@@H]1CN(c2ccc3c(=O)c4cccc(Cl)c4oc3c2)C[C@H]1c1ccc(Cl)cc1` [Example 20, (3S,4R)-1-(5-chloro-9-oxo-xanthen-3-yl)-4-(4-chlorophenyl)pyrrolidine-3-carboxylic Acid], the IC50 is reported as 46.6 µM.
`O=C(O)C1CCCN1c1ccc2c(=O)c3cccc(Cl)c3oc2c1` (stereo not shown) [Example 36, 1-(5-chloro-9-oxo-xanthen-3-yl)pyrrolidine-2-carboxylic Acid] was tested, and the IC50 was 11.5 µM.
Work on `O=c1c2ccc(N3CCC4(CCNC4)C3)cc2oc2c(F)cccc12` (stereo not shown) [Example 48, 3-(2,7-diazaspiro[4.4]nonan-2-yl)-5-fluoro-xanthen-9-one] yielded an IC50 of 5.48 µM.
`O=C(O)C1CCN(c2ccc3c(=O)c4cc(Cl)cc(Cl)c4oc3c2)C1` (stereo not shown) [Example 70, 1-(5,7-dichloro-9-oxo-xanthen-3-yl)pyrrolidine-3-carboxylic Acid] gave an IC50 of 5.9 µM.
Molecule `O=c1c2ccc(N3CCCC(O)C3)cc2oc2c(Cl)cccc12` (stereo not shown) [Example 12, 5-chloro-3-(3-hydroxy-1-piperidyl)xanthen-9-one] has an IC50 of 2.88 µM.
Molecule `O=C(O)C1(C(F)(F)F)CCN(c2ccc3c(=O)c4cccc(Cl)c4oc3c2)C1` (stereo not shown) [Example 19, 1-(5-chloro-9-oxo-xanthen-3-yl)-3-(trifluoromethyl)pyrrolidine-3-carboxylic Acid] has an IC50 of 27 µM.
For `N[C@H]1CCN(c2ccc3c(=O)c4cccc(F)c4oc3c2)C1` [Example 50, 3-[(3S)-3-aminopyrrolidin-1-yl]-5-fluoro-xanthen-9-one], the IC50 was 3.12 µM.
`N[C@@H]1CCN(c2ccc3c(=O)c4cccc(F)c4oc3c2)C1` [Example 51, 3-[(3R)-3-aminopyrrolidin-1-yl]-5-fluoro-xanthen-9-one] gave an IC50 of 4.85 µM.
Molecule `O=c1c2ccc(N3CCCNCC3)cc2oc2c(F)cccc12` [Example 49, 3-(1,4-diazepan-1-yl)-5-fluoro-xanthen-9-one] has an IC50 of 7.56 µM.
In the case of `Cc1cc2c(=O)c3cccc(Cl)c3oc2cc1N1CC[C@@H](C(=O)O)C1` [Example 74, (3R)-1-(5-chloro-2-methyl-9-oxo-xanthen-3-yl)pyrrolidine-3-carboxylic Acid], the IC50 is reported as 2.6 µM.
Molecule `O=c1c2ccc(N3CCC(CO)C3)cc2oc2c(Cl)cccc12` (stereo not shown) [Example 10, 5-chloro-3-[3-(hydroxymethyl)pyrrolidin-1-yl]xanthen-9-one] has an IC50 of 1.13 µM.
`CC1(C)CN(c2ccc3c(=O)c4cccc(Cl)c4oc3c2)CC1C(=O)O` (stereo not shown) [Example 17, 1-(5-chloro-9-oxo-xanthen-3-yl)-4,4-dimethyl-pyrrolidine-3-carboxylic Acid] was tested, and the IC50 was 12.7 µM.
`O=C(O)C1CCN(c2ccc3c(=O)c4cc(F)cc(Cl)c4oc3c2)C1` (stereo not shown) [Example 71, 1-(5-chloro-7-fluoro-9-oxo-xanthen-3-yl)pyrrolidine-3-carboxylic Acid] gave an IC50 of 13 µM.
`COC1(C(F)(F)F)c2ccc(N3CCCC3)cc2Oc2c(Cl)cccc21` (stereo not shown) [Example 60, 1-[5-chloro-9-methoxy-9-(trifluoromethyl)xanthen-3-yl]pyrrolidine] gave an IC50 of 22.2 µM.
`O=c1c2ccc(N3CCCC3)cc2oc2c(Cl)cccc12` [Example 1, 5-chloro-3-pyrrolidin-1-yl-xanthen-9-one] showed an IC50 of 0.23 µM.
In the case of `Fc1cccc2c1Oc1cc(N3CCCC3)ccc1C2` [Example 62, 1-(5-fluoro-9H-xanthen-3-yl)pyrrolidine], the IC50 is reported as 3.99 µM.
Molecule `O=c1c2ccc(N3CC[C@@H](O)C3)cc2oc2c(Cl)cccc12` [Example 30, 5-chloro-3-[(3R)-3-hydroxypyrrolidin-1-yl]xanthen-9-one] has an IC50 of 2.63 µM.
`COC1CCN(c2ccc3c(=O)c4cccc(F)c4oc3c2)C1` (stereo not shown) [Example 33, 5-fluoro-3-(3-methoxypyrrolidin-1-yl)xanthen-9-one] showed an IC50 of 4.06 µM.
Work on `Clc1cccc2c1Oc1c(cc(Cl)c(N3CCCC3)c1Cl)C2` [Example 56, 1-(2,4,5-trichloro-9H-xanthen-3-yl)pyrrolidine] yielded an IC50 of 6.28 µM.
For `O=C(O)[C@@H]1CCN(c2ccc3c(=O)c4c(Cl)ccc(Cl)c4oc3c2)C1` [Example 69, (3R)-1-(5,8-dichloro-9-oxo-xanthen-3-yl)pyrrolidine-3-carboxylic Acid], the IC50 was 0.96 µM.
In the case of `COC(=O)C1CCN(c2ccc3c(=O)c4cccc(Cl)c4oc3c2)C1` (stereo not shown) [Example 11, Methyl 1-(5-chloro-9-oxo-xanthen-3-yl)pyrrolidine-3-carboxylate], the IC50 is reported as 1.17 µM.
`O=c1c2ccc(N3CC[C@@H](O)C3)cc2oc2c(F)cccc12` [Example 32, 5-fluoro-3-[(3R)-3-hydroxypyrrolidin-1-yl]xanthen-9-one] gave an IC50 of 2.72 µM.
In the case of `O=C(O)[C@H]1CCN(c2ccc3c(=O)c4cccc(Cl)c4sc3c2)C1` [Example 72, (3S)-1-(5-chloro-9-oxo-thioxanthen-3-yl)pyrrolidine-3-carboxylic Acid], the IC50 is reported as 3.6 µM.
For `O=C(O)[C@@H]1CCN(c2ccc3c(=O)c4cccc(Cl)c4sc3c2)C1` [Example 73, (3R)-1-(5-chloro-9-oxo-thioxanthen-3-yl)pyrrolidine-3-carboxylic Acid], the IC50 was 2.6 µM.
`Cc1cc2c(=O)c3cccc(F)c3oc2cc1N1CCCC1` [Example 25, 5-fluoro-2-methyl-3-pyrrolidin-1-yl-xanthen-9-one] was tested, and the IC50 was 1.52 µM.
In the case of `O=C1CCCN1c1ccc2c(=O)c3cccc(F)c3oc2c1` [Example 23, 1-(5-fluoro-9-oxo-xanthen-3-yl)pyrrolidin-2-one], the IC50 is reported as 0.83 µM.
`OC1(C(F)(F)F)c2ccc(N3CCCC3)cc2Oc2c(Cl)cccc21` (stereo not shown) [Example 59, 5-chloro-3-pyrrolidin-1-yl-9-(trifluoromethyl)xanthen-9-ol] showed an IC50 of 19.2 µM.
Molecule `Clc1cccc2c1Oc1cc(N3CCCC3)ccc1C2` [Example 55, 1-(5-chloro-9H-xanthen-3-yl)pyrrolidine] has an IC50 of 1.11 µM.
For `O=c1c2ccc(N3CCCC3)cc2oc2c(F)cccc12` [Example 21, 5-fluoro-3-pyrrolidin-1-yl-xanthen-9-one], the IC50 was 0.27 µM.
With `O=c1c2ccc(N3CCC(O)C3)cc2oc2c(F)cccc12` (stereo not shown) [Example 24, 5-fluoro-3-(3-hydroxypyrrolidin-1-yl)xanthen-9-one] the IC50 was 1.05 µM.
With `CC1c2ccc(N3CCC(C(=O)O)C3)cc2Oc2c(Cl)cccc21` (stereo not shown) [Example 75, 1-(5-chloro-9-methyl-9H-xanthen-3-yl)pyrrolidine-3-carboxylic Acid] the IC50 was 10.1 µM.
With `O=c1c2ccc(N3CC[C@H](O)C3)cc2oc2c(F)cccc12` [Example 31, 5-fluoro-3-[(3S)-3-hydroxypyrrolidin-1-yl]xanthen-9-one] the IC50 was 2.71 µM.
Work on `O=c1c2ccc(N3CCCC3)nc2oc2c(Cl)cccc12` [Example 64, 9-chloro-2-pyrrolidin-1-yl-chromeno[2,3-b]pyridin-5-one] yielded an IC50 of 35 µM.
